Laboratory results taken from PubChem BioAssay AID264 (DTP/NCI, 2004).
Values joined by “and” are separate entries in the source; they are usually repeats but may differ in a detail not shown here. Equal entries are not always repeated. Records with an inconclusive call do not appear.

Test system: nude mice, LX-1 lung xenograft intrarenal, tumor weight T/C
Experiment: NCI In Vivo Anticancer Drug Screen. Data for tumor model Human Lung LX-1 Xenograft (intrarenal inoculation) in NU/NU Swiss (nude) mice
Conditions: endpoint: mean tumor weight change, higher = larger tumour
In short: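 Antitumor effect is expressed as a ratio: the mean tumor measurement of the drug-treated group relative to that of the vehicle-dosed control group.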

[1] = dose: 50.0 mg/kg/injection, schedule: Q01DX010 (sc), vehicle: Klucel (hydroxypropylcellulose) (HPC)
[2] = dose: 100.0 mg/kg/injection, schedule: Q01DX010 (sc), vehicle: Klucel (hydroxypropylcellulose) (HPC)
[3] = dose: 200.0 mg/kg/injection, schedule: Q01DX010 (sc), vehicle: Klucel (hydroxypropylcellulose) (HPC)
[4] = dose: 400.0 mg/kg/injection, schedule: Q01DX010 (sc), vehicle: Klucel (hydroxypropylcellulose) (HPC)
[5] = dose: 300.0 mg/kg/injection, schedule: Q04DX003 (sc), vehicle: Klucel (hydroxypropylcellulose) (HPC)
[6] = dose: 1200.0 mg/kg/injection, schedule: Q04DX003 (sc), vehicle: Klucel (hydroxypropylcellulose) (HPC)
[7] = dose: 75.0 mg/kg/injection, schedule: Q04DX003 (sc), vehicle: saline with Tween-80
[8] = dose: 150.0 mg/kg/injection, schedule: Q04DX003 (sc), vehicle: saline with Tween-80
[9] = dose: 300.0 mg/kg/injection, schedule: Q04DX003 (sc), vehicle: saline with Tween-80
[10] = dose: 12.5 mg/kg/injection, schedule: Q01DX010 (sc), vehicle: saline with Tween-80
[11] = dose: 25.0 mg/kg/injection, schedule: Q01DX010 (sc), vehicle: saline with Tween-80

SMILES: CC(=O)OCC1OC(n2ccc(N)nc2=O)C(OC(C)=O)C1OC(C)=O (stereo not given)
- T/C (dose: 300.0 mg/kg/injection, schedule: Q04DX003 (sc), vehicle: suspension in saline): 156 % of control
- T/C (dose: 600.0 mg/kg/injection, schedule: Q04DX003 (sc), vehicle: suspension in saline): 84 % of control
- T/C (dose: 1200.0 mg/kg/injection, schedule: Q04DX003 (sc), vehicle: suspension in saline): 23 % of control
- T/C (dose: 2400.0 mg/kg/injection, schedule: Q04DX003 (sc), vehicle: suspension in saline): 94 % of control

SMILES: CC1CN=C(c2ccc(NC(=O)c3ccc(C(=O)Nc4ccc(C5=NCC(C)N5)cc4)cc3)cc2)N1 (stereo not given)
- T/C [1]: 213 % of control
- T/C [2]: 68 % of control
- T/C [3]: 94 % of control
- T/C [4]: 84 % of control

SMILES: CCN1/C(=C/C=C/C=C\C=C\c2sc3ccc4ccccc4c3[n+]2CC)Sc2ccc3ccccc3c21
- T/C (dose: 6.25 mg/kg/injection, schedule: Q04DX003 (sc), vehicle: saline with Tween-80): 156 % of control
- T/C (dose: 12.5 mg/kg/injection, schedule: Q04DX003 (sc), vehicle: saline with Tween-80): 116 % of control
- T/C (dose: 25.0 mg/kg/injection, schedule: Q04DX003 (sc), vehicle: saline with Tween-80): 78 % of control
- T/C (dose: 50.0 mg/kg/injection, schedule: Q04DX003 (sc), vehicle: saline with Tween-80): 122 % of control

SMILES: COc1cc(OC)c(OC)cc1/C=C\c1ccnc2ccccc12
- T/C [5]: 62 % of control
- T/C (dose: 600.0 mg/kg/injection, schedule: Q04DX003 (sc), vehicle: Klucel (hydroxypropylcellulose) (HPC)): 82 % of control
- T/C [6]: 90 % of control
- T/C (dose: 2400.0 mg/kg/injection, schedule: Q04DX003 (sc), vehicle: Klucel (hydroxypropylcellulose) (HPC)): 81 % of control

SMILES: CCOC(=O)Nc1cc2c(c(N)n1)N=C(c1ccc(Cl)cc1Cl)CN2
- T/C (dose: 37.5 mg/kg/injection, schedule: Q04DX003 (sc), vehicle: saline with Tween-80): 82 % of control
- T/C [7]: 76 % of control
- T/C [8]: 64 % of control
- T/C [9]: 66 % of control

SMILES: O=C(O)CC(=O)O.[NH-]C1CCCCC1[NH-].[Pt+2] (stereo not given)
- T/C (dose: 5.0 mg/kg/injection, schedule: Q01DX010 (sc), vehicle: dextrose): 187 % of control and 247 % of control
- T/C (dose: 10.0 mg/kg/injection, schedule: Q01DX010 (sc), vehicle: dextrose): 92 % of control

SMILES: CCN(Cc1ccc(Cl)c(Cl)c1)c1ccc2nc(N)nc(N)c2c1C
- T/C (dose: 37.5 mg/kg/injection, schedule: Q04DX003 (sc), vehicle: water): 62 % of control

SMILES: Cc1ccc2c(ccc(CC(=S)[S-])[n+]2C)c1
- T/C [1]: 56 % of control
- T/C [2]: 99 % of control
- T/C [3]: 207 % of control
- T/C [4]: 72 % of control

SMILES: Cc1cc(Nc2ccc3c(c2)OCO3)c2cc3c(cc2n1)OCO3
- T/C (dose: 150.0 mg/kg/injection, schedule: Q04DX003 (sc), vehicle: Klucel (hydroxypropylcellulose) (HPC)): 113 % of control
- T/C [5]: 155 % of control
- T/C [6]: 123 % of control

SMILES: CC1(CO)C(O)CCC2(C)C1CCC1CC3CC12CCC3(O)CO (stereo not given)
- T/C (dose: 6.25 mg/kg/injection, schedule: Q01DX010 (sc), vehicle: saline with Tween-80): 181 % of control
- T/C [10]: 58 % of control
- T/C [11]: 78 % of control
- T/C (dose: 600.0 mg/kg/injection, schedule: Q01DX010 (sc), vehicle: saline with Tween-80): 67 % of control

SMILES: O=C(/C=C(\Cl)C(=O)NO)NO
- T/C (dose: 100.0 mg/kg/injection, schedule: Q04DX003 (sc), vehicle: saline): 103 % of control

SMILES: NC1(C(=O)O)CCCC1
- T/C (dose: 12.0 mg/kg/injection, schedule: Q01DX010 (sc), vehicle: saline): 94 % of control
- T/C (dose: 24.0 mg/kg/injection, schedule: Q01DX010 (sc), vehicle: saline): 66 % of control
- T/C (dose: 48.0 mg/kg/injection, schedule: Q01DX010 (sc), vehicle: saline): 57 % of control
- T/C (dose: 50.0 mg/kg/injection, schedule: Q01DX010 (sc), vehicle: saline): 32 % of control
- T/C (dose: 96.0 mg/kg/injection, schedule: Q01DX010 (sc), vehicle: saline): 29 % of control

SMILES: CCOC(=O)C(CC(C)C)NC(=O)C(N)Cc1ccc(N(CCCl)CCCl)cc1 (stereo not given)
- T/C (dose: 15.0 mg/kg/injection, schedule: Q04DX003 (sc), vehicle: water): 72 % of control
- T/C (dose: 30.0 mg/kg/injection, schedule: Q04DX003 (sc), vehicle: water): 55 % of control

SMILES: O=C1SC(c2ccccc2)=S=C1c1ccccc1
- T/C (dose: 600.0 mg/kg/injection, schedule: Q04DX003 (sc), vehicle: saline with Tween-80): 224 % of control
- T/C (dose: 1200.0 mg/kg/injection, schedule: Q04DX003 (sc), vehicle: saline with Tween-80): 78 % of control
- T/C (dose: 2400.0 mg/kg/injection, schedule: Q04DX003 (sc), vehicle: saline with Tween-80): 88 % of control

SMILES: CCCCCCCCCCS(=O)CC(CO)NC(=O)/C=C/c1c(C)[nH]c(=O)[nH]c1=O (stereo not given)
- T/C (dose: 9.38 mg/kg/injection, schedule: Q04DX003 (sc), vehicle: distilled water + Tween-80): 108 % of control
- T/C (dose: 18.75 mg/kg/injection, schedule: Q04DX003 (sc), vehicle: distilled water + Tween-80): 124 % of control

SMILES: COC1=C(OC)C(=O)C(Sc2ccc3ccccc3c2)=CC1=O
- T/C [7]: 85 % of control
- T/C [8]: 93 % of control
- T/C (dose: 200.0 mg/kg/injection, schedule: Q04DX003 (sc), vehicle: saline with Tween-80): 115 % of control
- T/C [9]: 80 % of control
- T/C (dose: 400.0 mg/kg/injection, schedule: Q04DX003 (sc), vehicle: saline with Tween-80): 104 % of control
- T/C (dose: 800.0 mg/kg/injection, schedule: Q04DX003 (sc), vehicle: saline with Tween-80): 92 % of control
- T/C (dose: 1600.0 mg/kg/injection, schedule: Q04DX003 (sc), vehicle: saline with Tween-80): 79 % of control

SMILES: COC1=NCN=C2SC=C(N)N=C12
- T/C (dose: 150.0 mg/kg/injection, schedule: Q04DX003 (sc), vehicle: suspension in saline): 79 % of control

SMILES: CCOC(=O)C(CC(C)C)NC(=O)C(Cc1ccc(N(CCCl)CCCl)cc1)NC(C)=O (stereo not given)
- T/C [10]: 51 % of control
- T/C [11]: 37 % of control
- T/C (dose: 50.0 mg/kg/injection, schedule: Q01DX010 (sc), vehicle: saline with Tween-80): 28 % of control

SMILES: COc1cc2c(ccc3c4cc(OC)c(OC)cc4c[n+](C)c23)cc1O
- T/C (dose: 300.0 mg/kg/injection, schedule: Q04DX003 (sc), vehicle: saline): 107 % of control
- T/C (dose: 600.0 mg/kg/injection, schedule: Q04DX003 (sc), vehicle: saline): 79 % of control
- T/C (dose: 1200.0 mg/kg/injection, schedule: Q04DX003 (sc), vehicle: saline): 46 % of control
- T/C (dose: 2400.0 mg/kg/injection, schedule: Q04DX003 (sc), vehicle: saline): 65 % of control

SMILES: COC1CC(C)C(OC)c2cc(O)cc(c2O)NC(=O)/C(C)=C/C=C\C(C)C(OC(N)=O)/C(C)=C\C(C)C1OC (stereo not given)
- T/C (dose: 25.0 mg/kg/injection, schedule: Q04DX003 (sc), vehicle: saline + alcohol): 86 % of control
- T/C (dose: 50.0 mg/kg/injection, schedule: Q04DX003 (sc), vehicle: saline + alcohol): 93 % of control
- T/C (dose: 100.0 mg/kg/injection, schedule: Q04DX003 (sc), vehicle: saline + alcohol): 82 % of control
